Values quoted from earlier work, collected in patent publication US9949922B2, “Silica hydrogel composite” (DELSITECH OY, priority 2013, dated 2018).

Details: nimodipine value from DrugBank

Water solubility: 800 µg/mL
SMILES: O=C1OC2(c3ccc(O)cc3Oc3cc(O)ccc32)c2ccccc21 [Fluorescein]
